ChEMBL document CHEMBL1129583, “Nonclassical 2,4-diamino-8-deazafolate analogues as inhibitors of dihydrofolate reductases from rat liver, Pneumocystis carinii, and Toxoplasma gondii” (J Med Chem, 1996)

Columns and labels:
Dihydrofolate reductase = target: T1, Dihydrofolate reductase (Rattus norvegicus, UniProt Q920D2)
T1 sequence (Q920D2 whole entry): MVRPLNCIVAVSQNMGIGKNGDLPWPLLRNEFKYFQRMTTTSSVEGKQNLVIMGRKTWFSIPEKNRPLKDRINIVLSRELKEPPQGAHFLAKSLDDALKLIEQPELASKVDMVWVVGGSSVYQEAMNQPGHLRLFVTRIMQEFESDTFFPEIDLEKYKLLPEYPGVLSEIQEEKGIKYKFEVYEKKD
Description: Inhibitory activity against rat liver dihydrofolate reductase.

[1] = target: T2, Bifunctional dihydrofolate reductase-thymidylate synthase (Toxoplasma gondii, UniProt Q07422)
T2 sequence (Q07422 whole entry): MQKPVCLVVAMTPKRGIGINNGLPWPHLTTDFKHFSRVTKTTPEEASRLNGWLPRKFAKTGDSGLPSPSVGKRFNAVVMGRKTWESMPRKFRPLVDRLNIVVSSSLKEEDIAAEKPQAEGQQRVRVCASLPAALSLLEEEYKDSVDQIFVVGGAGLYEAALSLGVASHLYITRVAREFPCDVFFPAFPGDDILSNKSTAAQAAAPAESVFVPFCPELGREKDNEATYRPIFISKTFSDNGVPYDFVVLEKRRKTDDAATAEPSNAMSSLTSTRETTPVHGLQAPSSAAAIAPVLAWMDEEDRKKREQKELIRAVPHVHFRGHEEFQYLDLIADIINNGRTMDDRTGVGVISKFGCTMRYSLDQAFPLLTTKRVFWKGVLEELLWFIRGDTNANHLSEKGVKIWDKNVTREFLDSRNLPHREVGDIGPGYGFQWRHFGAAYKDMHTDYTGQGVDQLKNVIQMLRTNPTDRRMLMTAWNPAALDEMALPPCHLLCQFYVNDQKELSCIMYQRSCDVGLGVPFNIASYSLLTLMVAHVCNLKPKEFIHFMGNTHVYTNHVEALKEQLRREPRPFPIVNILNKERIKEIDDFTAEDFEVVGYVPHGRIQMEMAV
Description: Inhibitory activity against Toxoplasma gondii dihydrofolate reductase.

Pneumocystis carinii = test: Ratio of inhibitory concentration of rat liver and Pneumocystis carinii DHFR.
[2] = Ratio of inhibitory concentration of Rat liver and Toxoplasma gondii DHFR
[3] = Ratio of inhibitory concentration of Rat liver and Pneumocystis carinii DHFR
[4] = pRatio of inhibitory concentration of Rat liver and Pneumocystis carinii DHFR

Structure (SMILES)	IC50 (Dihydrofolate reductase)	IC50 [1]	Selectivity (Pneumocystis carinii)	Selectivity [2]	Selectivity [3]	Selectivity [4]
Nc1nc(N)c2nc(CSc3ccccc3)ccc2n1	520 nM	130 nM	0.26	–	–	–
CN(Cc1ccc2nc(N)nc(N)c2n1)c1ccc(Cl)cc1Cl	58 nM	50 nM	0.12	–	–	–
CC(=O)c1ccc(N(C)Cc2ccc3nc(N)nc(N)c3n2)cc1	5.1 nM	15 nM	0.04	–	–	–
CN(Cc1ccc2nc(N)nc(N)c2n1)c1ccc(C(=O)C(F)(F)F)cc1	32 nM	46 nM	0.13	–	–	–
Nc1nc(N)c2nc(CNc3ccc(Cl)c(Cl)c3)ccc2n1	54 nM	57 nM	0.13	–	–	–
COc1cccc(NCc2ccc3nc(N)nc(N)c3n2)c1	200 nM	100 nM	0.12	–	–	–
COc1ccc(SCc2cnc3nc(N)nc(N)c3c2C)cc1	520 nM	63 nM	0.93	–	–	–
CN(Cc1ccc2nc(N)nc(N)c2n1)c1cccc2ccccc12	7.3 nM	18 nM	0.18	–	–	–
Nc1nc(N)c2nc(CSc3ccccc3)cnc2n1	246000 nM	770 nM	25.9	–	–	–
COc1ccc(N(C)Cc2ccc3nc(N)nc(N)c3n2)cc1OC	2.7 nM	9.8 nM	0.02	–	–	–
CC(=O)c1ccc(NCc2ccc3nc(N)nc(N)c3n2)cc1	2.5 nM	27 nM	0.01	–	–	–
COc1cc(N(C)Cc2ccc3nc(N)nc(N)c3n2)cc(OC)c1OC	–	–	0.2	–	–	–
COc1ccc(OC)c(NCc2ccc3nc(N)nc(N)c3n2)c1	280 nM	120 nM	0.06	–	–	–
CN(Cc1ccc2nc(N)nc(N)c2n1)c1ccccc1Cl	120 nM	15 nM	0.57	–	–	–
COc1ccc(N(C)Cc2ccc3nc(N)nc(N)c3n2)cc1	18 nM	16 nM	0.072	–	–	–
CN(Cc1ccc2nc(N)nc(N)c2n1)c1cccc(Cl)c1	–	–	0.032	–	–	–
Nc1nc(N)c2nc(CNc3ccc4ccccc4c3)ccc2n1	210 nM	160 nM	–	1.31	0.13	–
CN(Cc1ccc2nc(N)nc(N)c2n1)c1c(Cl)cccc1Cl	48 nM	30 nM	0.28	–	–	–
Nc1nc(N)c2nc(CNc3cc(Cl)c(Cl)c(Cl)c3)ccc2n1	44 nM	87 nM	0.07	–	–	–
CN(Cc1ccc2nc(N)nc(N)c2n1)c1cc(Cl)c(Cl)c(Cl)c1	87 nM	38 nM	0.35	–	–	–
Nc1nc(N)c2nc(CSc3cccc4ccccc34)ccc2n1	160 nM	49 nM	0.34	–	–	–
C#CCN(Cc1ccc2nc(N)nc(N)c2n1)c1ccc(C(=O)C(F)(F)F)cc1	7.5 nM	54 nM	0.06	–	–	–
Nc1nc(N)c2nc(CNc3cccc4ccccc34)ccc2n1	40 nM	26 nM	–	1.54	0.17	–

Structure (SMILES)	IC50 (Dihydrofolate reductase)	IC50 [1]	Selectivity (Pneumocystis carinii)	Selectivity [2]	Selectivity [3]	Selectivity [4]
Nc1nc(N)c2nc(CNc3cccc(Cl)c3)ccc2n1	140 nM	130 nM	0.07	–	–	–
CN(Cc1ccc2nc(N)nc(N)c2n1)c1ccc(Cl)c(Cl)c1	17 nM	27 nM	0.45	–	–	–
Nc1nc(N)c2nc(CNc3c(Cl)cc(Cl)cc3Cl)ccc2n1	570 nM	46 nM	0.29	–	–	–
CN(Cc1ccc2nc(N)nc(N)c2n1)c1c(Cl)cc(Cl)cc1Cl	52 nM	44 nM	0.43	–	–	–
COc1ccc(N(C)Cc2ccc3nc(N)nc(N)c3n2)c(OC)c1	16 nM	14 nM	0.1	–	–	–
COc1ccc(NCc2ccc3nc(N)nc(N)c3n2)cc1	73 nM	54 nM	0.09	–	–	–
Nc1nc(N)c2nc(CSc3ccc4ccccc4c3)ccc2n1	86 nM	48 nM	0.23	–	–	–
COc1cc(NCc2ccc3nc(N)nc(N)c3n2)cc(OC)c1OC	200 nM	40 nM	0.1	–	–	–
COc1ccc(OC)c(N(C)Cc2ccc3nc(N)nc(N)c3n2)c1	50 nM	25 nM	0.24	–	–	–
CN(Cc1ccc2nc(N)nc(N)c2n1)c1ccccc1	24 nM	8.4 nM	0.08	–	–	–
Nc1nc(N)c2nc(CNc3ccccc3)ccc2n1	260 nM	85 nM	0.15	–	–	–
COc1ccc(NCc2ccc3nc(N)nc(N)c3n2)cc1OC	60 nM	90 nM	0.07	–	–	–
COc1ccc(NCc2ccc3nc(N)nc(N)c3n2)c(OC)c1	320 nM	140 nM	0.06	–	–	–
COc1ccccc1N(C)Cc1ccc2nc(N)nc(N)c2n1	120 nM	26 nM	0.24	–	–	–
COc1cccc(N(C)Cc2ccc3nc(N)nc(N)c3n2)c1	35 nM	15 nM	0.36	–	–	–
Nc1nc(N)c2nc(CNc3c(Cl)cccc3Cl)ccc2n1	82 nM	28 nM	–	–	–	0.082
CN(Cc1ccc2nc(N)nc(N)c2n1)c1ccc2ccccc2c1	7.2 nM	16 nM	0.14	–	–	–
Nc1nc(N)c2nc(CNc3cc(Cl)ccc3Cl)ccc2n1	200 nM	91 nM	0.13	–	–	–
C#CCN(Cc1ccc2nc(N)nc(N)c2n1)c1ccc(C(C)=O)cc1	15 nM	20 nM	0.07	–	–	–
Nc1nc(N)c2nc(CNc3ccc(Cl)cc3Cl)ccc2n1	88 nM	50 nM	0.12	–	–	–
Nc1nc(N)c2nc(CNc3ccccc3Cl)ccc2n1	140 nM	110 nM	0.26	–	–	–
COc1ccccc1NCc1ccc2nc(N)nc(N)c2n1	420 nM	120 nM	0.16	–	–	–
CN(Cc1ccc2nc(N)nc(N)c2n1)c1cc(Cl)ccc1Cl	47 nM	25 nM	0.31	–	–	–
